Active and inactive are the calls of the source.
Legend:
[1] = luciferase reporter signal suppression in cells – H4 neuroglioma cells, luminescence, dose response (AID 1990); format: functional, cell-based
[2] = DRD fibroblast viability loss – cell-based, non-viral oncogenic, luminescence, dose response (AID 1934); format: functional; details: Homo sapiens
[3] = cells; format: functional, cell-based
[4] = tested on: BJ; experiment: BJ-TERT fibroblast viability loss – cell-based, RAS-independent, luminescence, dose response (AID 1933); format: functional; details: Homo sapiens
[5] = luciferase reporter signal reduction – luminescence, H4-C neuroglioblastoma cells, dose response (AID 2458); format: functional, cell-based;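 note: H4 neuroglioblastoma cells stably carrying a luciferase reporter gene fusion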
[6] = tested on: BJ; experiment: BJ-TERT-LT-ST fibroblast viability loss – cell-based, RAS-independent, luminescence, dose response (AID 1935); format: functional; details: Homo sapiens;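 note: BJ fibroblasts immortalized with TERT plus LT and ST oncogenes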
[7] = alpha-synuclein stem-loop translation blockers – luminescence, H4 neuroglioblastoma cells, dose confirmation, confirmation (AID 2454); format: functional, cell-based;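 note: H4 neuroglioblastoma cells carrying an alpha-synuclein 5'UTR luciferase reporter; potency for inhibition of the luciferase signal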
[8] = Luminescence Cell-Based Dose Response HTS to Identify Inhibitors of 5'UTR Stem-Loop Driven Prion Protein mRNA Translation in H4 Neuroglioblastoma Cells. [Related pubchem assays: 1827 (Project Summary), 1813 (Primary HTS)]; format: functional
[9] = toxicity toward HEK293 cells – cell-based, dry powder samples, cytotoxicity control, dose response (AID 720567); format: functional
[10] = tested on: BJ; experiment: cells; format: functional, cell-based; details: Homo sapiens
[11] = alpha-synuclein stem-loop luciferase translation blockers – H4 neuroglioma cells, luminescence, confirmation (AID 1988); format: functional, cell-based
[12] = target: T1, Dual specificity protein phosphatase 6 (Rattus norvegicus, UniProt Q64346)
T1 sequence (Q64346 whole entry): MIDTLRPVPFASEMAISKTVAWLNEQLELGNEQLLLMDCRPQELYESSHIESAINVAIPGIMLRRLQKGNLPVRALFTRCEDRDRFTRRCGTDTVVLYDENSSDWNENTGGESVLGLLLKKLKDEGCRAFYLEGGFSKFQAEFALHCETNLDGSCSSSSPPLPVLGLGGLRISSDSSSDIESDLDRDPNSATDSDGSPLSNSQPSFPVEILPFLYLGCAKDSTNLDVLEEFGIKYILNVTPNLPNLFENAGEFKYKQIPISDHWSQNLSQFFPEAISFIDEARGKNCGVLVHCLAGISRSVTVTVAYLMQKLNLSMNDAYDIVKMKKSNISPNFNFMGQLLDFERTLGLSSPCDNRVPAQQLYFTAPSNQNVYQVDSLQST

[13] = target: Glyceraldehyde-3-phosphate dehydrogenase (Homo sapiens, UniProt P04406)
Sequence of Glyceraldehyde-3-phosphate dehydrogenase (P04406 whole entry): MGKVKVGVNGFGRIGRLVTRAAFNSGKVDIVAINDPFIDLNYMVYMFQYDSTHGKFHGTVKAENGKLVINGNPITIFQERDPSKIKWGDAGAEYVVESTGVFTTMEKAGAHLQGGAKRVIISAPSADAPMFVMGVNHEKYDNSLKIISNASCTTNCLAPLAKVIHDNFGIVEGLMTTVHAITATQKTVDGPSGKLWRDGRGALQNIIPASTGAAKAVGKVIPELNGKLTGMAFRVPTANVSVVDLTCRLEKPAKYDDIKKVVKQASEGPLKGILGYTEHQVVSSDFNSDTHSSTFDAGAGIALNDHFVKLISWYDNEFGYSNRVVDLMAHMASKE

[14] = target: Heat shock cognate 71 kDa protein (Homo sapiens, UniProt P11142); experiment: In Vitro Hsc70 Dose Response Fluorescence Polarization Assay. [Related pubchem assays: 1072 ]
Sequence of Heat shock cognate 71 kDa protein (P11142 whole entry): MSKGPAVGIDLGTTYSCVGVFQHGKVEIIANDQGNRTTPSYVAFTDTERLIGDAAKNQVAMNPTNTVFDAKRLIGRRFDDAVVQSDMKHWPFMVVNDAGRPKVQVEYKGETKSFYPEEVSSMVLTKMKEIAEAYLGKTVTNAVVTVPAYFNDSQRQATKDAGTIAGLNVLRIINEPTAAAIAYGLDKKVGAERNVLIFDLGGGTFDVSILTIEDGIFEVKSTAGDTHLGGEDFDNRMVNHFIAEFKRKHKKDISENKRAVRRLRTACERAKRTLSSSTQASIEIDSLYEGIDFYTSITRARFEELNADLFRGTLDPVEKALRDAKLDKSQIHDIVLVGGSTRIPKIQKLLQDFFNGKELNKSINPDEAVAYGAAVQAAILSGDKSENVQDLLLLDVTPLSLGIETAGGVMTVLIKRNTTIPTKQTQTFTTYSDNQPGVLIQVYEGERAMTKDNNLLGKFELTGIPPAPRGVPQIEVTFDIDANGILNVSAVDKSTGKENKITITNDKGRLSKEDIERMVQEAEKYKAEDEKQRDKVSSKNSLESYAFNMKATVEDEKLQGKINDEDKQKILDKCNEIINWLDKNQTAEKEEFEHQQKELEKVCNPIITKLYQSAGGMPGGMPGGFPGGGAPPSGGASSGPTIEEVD

[15] = target: Bcl-2-like protein 10 (Homo sapiens, UniProt Q9HD36); experiment: Concentration-response of Bcl-B inhibitors by biochemical FP with TR3 (AID 1243); format: functional
[16] = target: Heat shock 70 kDa protein 1A (Homo sapiens, UniProt P0DMV8); experiment: inhibition of Hsp70 binding activity – biochemical, fluorescence polarization, SAR follow-up (AID 1072)
Sequence of Heat shock 70 kDa protein 1A (P0DMV8 whole entry): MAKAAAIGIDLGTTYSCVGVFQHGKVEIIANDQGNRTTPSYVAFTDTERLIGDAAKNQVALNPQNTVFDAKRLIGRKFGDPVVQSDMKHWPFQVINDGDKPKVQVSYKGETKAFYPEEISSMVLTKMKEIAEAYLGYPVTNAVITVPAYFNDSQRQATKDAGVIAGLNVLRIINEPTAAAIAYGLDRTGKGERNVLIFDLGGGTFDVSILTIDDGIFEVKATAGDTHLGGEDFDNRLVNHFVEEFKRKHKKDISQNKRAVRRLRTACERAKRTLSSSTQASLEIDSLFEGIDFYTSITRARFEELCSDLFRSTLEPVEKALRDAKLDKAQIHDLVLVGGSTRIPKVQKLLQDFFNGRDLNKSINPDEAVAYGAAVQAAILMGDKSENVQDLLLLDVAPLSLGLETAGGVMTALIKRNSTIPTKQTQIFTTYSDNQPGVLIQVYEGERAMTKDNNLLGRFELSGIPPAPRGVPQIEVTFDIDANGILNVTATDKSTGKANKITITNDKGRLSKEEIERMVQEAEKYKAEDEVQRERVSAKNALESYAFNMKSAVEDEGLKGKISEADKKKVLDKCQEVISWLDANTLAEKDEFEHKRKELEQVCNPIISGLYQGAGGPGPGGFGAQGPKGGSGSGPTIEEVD

[17] = target: T2, Tyrosine-protein phosphatase non-receptor type 7 (Homo sapiens, UniProt P35236); format: functional
T2 sequence (P35236 whole entry): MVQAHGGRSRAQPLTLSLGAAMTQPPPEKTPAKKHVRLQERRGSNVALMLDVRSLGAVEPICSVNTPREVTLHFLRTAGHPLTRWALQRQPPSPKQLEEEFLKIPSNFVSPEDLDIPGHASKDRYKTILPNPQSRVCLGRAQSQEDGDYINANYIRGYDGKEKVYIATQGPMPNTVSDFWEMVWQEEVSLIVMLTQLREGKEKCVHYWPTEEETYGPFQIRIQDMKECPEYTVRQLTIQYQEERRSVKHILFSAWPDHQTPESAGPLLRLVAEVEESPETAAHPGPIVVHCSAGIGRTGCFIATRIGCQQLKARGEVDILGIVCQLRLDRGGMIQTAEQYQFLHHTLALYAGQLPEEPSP

[18] = target: T1, Dual specificity protein phosphatase 6; format: functional
[19] = target: Cytochrome P450 3A4 (Homo sapiens, UniProt P08684);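 note: CYP3A4 tested as one member of a cytochrome P450 panel screen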
Sequence of Cytochrome P450 3A4 (P08684 whole entry): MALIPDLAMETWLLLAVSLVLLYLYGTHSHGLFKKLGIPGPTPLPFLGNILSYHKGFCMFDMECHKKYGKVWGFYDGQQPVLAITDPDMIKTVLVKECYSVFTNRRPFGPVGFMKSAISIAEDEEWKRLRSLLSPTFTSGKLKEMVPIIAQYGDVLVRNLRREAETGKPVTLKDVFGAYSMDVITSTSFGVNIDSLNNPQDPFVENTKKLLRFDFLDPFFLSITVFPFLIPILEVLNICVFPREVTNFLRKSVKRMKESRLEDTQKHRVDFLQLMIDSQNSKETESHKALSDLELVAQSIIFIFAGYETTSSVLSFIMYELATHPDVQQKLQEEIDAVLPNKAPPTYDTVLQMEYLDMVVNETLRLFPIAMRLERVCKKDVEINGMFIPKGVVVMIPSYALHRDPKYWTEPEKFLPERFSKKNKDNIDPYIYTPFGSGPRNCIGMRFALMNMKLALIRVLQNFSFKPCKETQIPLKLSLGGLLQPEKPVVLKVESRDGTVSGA

[20] = tested on: Staphylococcus aureus; experiment: Inhibitors of Bacterial Quorum Sensing Structure Activity Relationship (SAR) Analysis: Dose Response Assay. [Related pubchem assays: 700, 527 ]; format: functional, organism-based
[21] = target: Cytochrome P450 2C9 (Homo sapiens, UniProt P11712); details: Potency
[22] = target: Wee1-like protein kinase (Homo sapiens, UniProt P30291); experiment: HeLa cell cycle G2/M accumulation – FACS, mechanism study for Wee1 degradation inhibitor project, late-stage follow-up, panel member Wee1 Degradation (AID 2088)
Sequence of Wee1-like protein kinase (P30291 whole entry): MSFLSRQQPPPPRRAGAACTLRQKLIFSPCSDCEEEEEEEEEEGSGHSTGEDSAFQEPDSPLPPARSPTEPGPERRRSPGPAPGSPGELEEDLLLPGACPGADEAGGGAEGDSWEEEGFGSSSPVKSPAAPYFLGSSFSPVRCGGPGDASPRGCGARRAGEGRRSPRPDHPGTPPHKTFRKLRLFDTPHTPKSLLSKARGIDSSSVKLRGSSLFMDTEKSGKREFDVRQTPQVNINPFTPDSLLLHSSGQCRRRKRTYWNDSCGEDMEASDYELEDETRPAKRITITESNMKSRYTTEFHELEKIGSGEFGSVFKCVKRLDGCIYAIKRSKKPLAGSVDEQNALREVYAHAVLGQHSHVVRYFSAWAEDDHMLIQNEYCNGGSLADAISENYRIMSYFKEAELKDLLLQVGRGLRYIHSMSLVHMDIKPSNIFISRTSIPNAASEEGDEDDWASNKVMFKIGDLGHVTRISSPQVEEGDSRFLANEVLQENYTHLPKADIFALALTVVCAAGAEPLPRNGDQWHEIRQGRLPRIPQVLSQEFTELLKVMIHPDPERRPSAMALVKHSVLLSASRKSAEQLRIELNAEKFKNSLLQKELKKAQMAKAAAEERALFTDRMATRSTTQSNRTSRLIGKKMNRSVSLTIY

[23] = target: G2/mitotic-specific cyclin-B1 (Homo sapiens, UniProt P14635); experiment: HeLa cell cycle G2/M accumulation – FACS, mechanism study for Wee1 degradation inhibitor project, late-stage follow-up, panel member Cyclin B Degradation (AID 2088)
Sequence of G2/mitotic-specific cyclin-B1 (P14635 whole entry): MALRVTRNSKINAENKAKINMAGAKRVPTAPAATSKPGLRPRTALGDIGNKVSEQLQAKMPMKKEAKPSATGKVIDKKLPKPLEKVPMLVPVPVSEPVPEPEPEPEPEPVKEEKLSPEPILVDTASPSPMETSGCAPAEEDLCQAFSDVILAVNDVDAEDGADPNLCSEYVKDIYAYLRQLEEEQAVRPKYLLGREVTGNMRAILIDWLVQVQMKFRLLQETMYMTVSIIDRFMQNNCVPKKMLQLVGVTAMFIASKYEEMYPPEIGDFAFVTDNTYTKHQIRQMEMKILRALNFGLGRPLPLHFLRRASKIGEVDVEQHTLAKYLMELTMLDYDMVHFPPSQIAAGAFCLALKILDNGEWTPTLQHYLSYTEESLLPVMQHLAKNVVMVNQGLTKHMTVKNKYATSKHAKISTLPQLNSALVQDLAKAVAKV

[24] = target: Lysosomal acid glucosylceramidase (Homo sapiens, UniProt P04062); experiment: Dose response cell-based high throughput screening assay to identify enhancers of beta-glucosidase activity. [Related pubchem assays: 784 ]; format: functional
Sequence of Lysosomal acid glucosylceramidase (P04062 whole entry): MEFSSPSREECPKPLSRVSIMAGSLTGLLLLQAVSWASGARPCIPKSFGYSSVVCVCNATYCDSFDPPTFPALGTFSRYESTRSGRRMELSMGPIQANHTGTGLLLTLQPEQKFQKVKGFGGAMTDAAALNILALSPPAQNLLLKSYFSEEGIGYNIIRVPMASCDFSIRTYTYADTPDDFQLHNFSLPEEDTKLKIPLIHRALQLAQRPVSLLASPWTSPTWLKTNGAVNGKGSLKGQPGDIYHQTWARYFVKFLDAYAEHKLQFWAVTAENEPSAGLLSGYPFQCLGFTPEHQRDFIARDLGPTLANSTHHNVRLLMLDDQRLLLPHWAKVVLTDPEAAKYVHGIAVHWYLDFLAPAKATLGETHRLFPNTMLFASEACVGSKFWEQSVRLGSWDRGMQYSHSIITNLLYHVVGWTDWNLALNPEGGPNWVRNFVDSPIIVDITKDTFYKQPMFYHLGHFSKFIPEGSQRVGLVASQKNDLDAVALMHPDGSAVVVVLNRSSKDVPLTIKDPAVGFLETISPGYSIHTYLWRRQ

[25] = Trypanosoma cruzi growth suppression in host cells – NIH3T3 host cells, beta-gal luminescence, confirmation (AID 2044); format: functional, cell-based;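 note: intracellular parasites grown in NIH/3T3 mouse fibroblasts as host cells; luminescent beta-galactosidase reporter signal from transgenic T. cruzi replicating inside host cells; inhibitors lower the luminescence signal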
[26] = Cytotoxicity screening for potential Inhibitors of Bacterial Capsule Biogenesis. [Related pubchem assays (depositor defined):AID488970]; format: functional
[27] = NIH3T3 cell viability loss – ATP luminescence, mouse fibroblasts, counter-screen, dose response (AID 2010); format: functional, cell-based;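 note: cells exposed to compound for about 90 hours before reading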
[28] = A549 cell cytotoxicity, dose response, cytotoxicity control, plate reader, cherry-pick, antagonist series (AID 743412); format: functional, cell-based
[29] = blockers of bursicon-stimulated LGR2 cAMP reporter – cell-based, HEK293, CRE-luciferase reporter, cherry pick, set 2, dose response (AID 743343); format: functional;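 note: transfected cells were stimulated with diluted bursicon conditioned medium after compound addition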
[30] = toxicity toward HepG2 liver cells – cell-based, plate reader, cherry-pick, antagonist series, cytotoxicity control, dose response (AID 743416); format: functional
[31] = viability loss in HEK293 cells – cell-based, plate reader, cherry-picked samples, cytotoxicity control, dose response (AID 743446); format: functional
[32] = target: Neurotensin receptor type 1 (Homo sapiens, UniProt P30989); format: functional;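 note: Image-based confirmatory dose-response assay measuring agonist activity at NTR1; NTR1-expressing U2OS osteosarcoma cells imaged for beta-arrestin GFP spot formation; agonist potency where compounds increase beta-arrestin recruitment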
[33] = blockade of melanocortin 4 receptor signaling – cell-based, plate reader, cherry pick, counter-screen for LGR2 antagonist project, dose response (AID 743444); format: functional;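 note: transfected HEK 293 cells stimulated with alpha-MSH peptide; potency of inhibitors of the alpha-MSH evoked signal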
[34] = target: Beta-2 adrenergic receptor (Homo sapiens, UniProt P07550); experiment: ADRB2 activation measured by internalization – cell-based, FAP fluorogen, flow cytometry, cherry pick 1, dose response (AID 588763); format: functional
Sequence of Beta-2 adrenergic receptor (P07550 whole entry): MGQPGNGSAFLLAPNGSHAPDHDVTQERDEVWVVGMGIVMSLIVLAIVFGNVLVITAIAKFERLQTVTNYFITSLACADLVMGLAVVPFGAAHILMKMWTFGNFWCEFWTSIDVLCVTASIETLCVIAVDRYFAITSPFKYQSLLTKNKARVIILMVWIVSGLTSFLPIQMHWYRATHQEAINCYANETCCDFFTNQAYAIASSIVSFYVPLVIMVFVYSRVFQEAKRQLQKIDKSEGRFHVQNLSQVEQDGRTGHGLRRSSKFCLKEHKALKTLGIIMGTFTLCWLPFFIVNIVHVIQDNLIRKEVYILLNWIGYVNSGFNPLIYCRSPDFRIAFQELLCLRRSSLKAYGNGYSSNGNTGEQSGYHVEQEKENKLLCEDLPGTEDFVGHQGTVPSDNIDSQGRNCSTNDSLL

[35] = viability of uninfected HEp-2 cells – cell-based, HTS, cytotoxicity control for RSV inhibitor project, dose response (AID 2410); format: functional; details: human respiratory syncytial virus
[36] = target: Oxytocin receptor (Homo sapiens, UniProt P30559); experiment: Fluorescence-based cell-based high throughput dose response assay for agonists of the Oxytocin Receptor (OXTR). [Related pubchem assays: 2435 (Primary screen (OXTR agonists in singlicate)), 434991 (Counterscreen (V1R agonists in triplicate)), 2482 (Summary (OXTR agonists)), 434963 (Confirmation screen (OXTR agonists in triplicate))]; format: functional
Sequence of Oxytocin receptor (P30559 whole entry): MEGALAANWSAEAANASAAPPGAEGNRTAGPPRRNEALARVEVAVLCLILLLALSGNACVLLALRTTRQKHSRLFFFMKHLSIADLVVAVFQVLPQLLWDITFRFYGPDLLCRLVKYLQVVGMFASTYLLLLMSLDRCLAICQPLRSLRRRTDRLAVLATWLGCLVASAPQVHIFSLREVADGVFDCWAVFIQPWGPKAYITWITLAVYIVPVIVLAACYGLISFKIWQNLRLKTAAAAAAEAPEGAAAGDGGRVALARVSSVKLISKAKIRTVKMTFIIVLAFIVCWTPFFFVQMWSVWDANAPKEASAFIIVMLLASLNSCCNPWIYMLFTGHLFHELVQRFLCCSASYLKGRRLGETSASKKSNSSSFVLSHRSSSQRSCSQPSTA

[37] = target: Vasopressin V1a receptor (Homo sapiens, UniProt P37288); experiment: Counterscreen for Oxytocin Receptor (OXTR) agonists: Fluorescence-based cell-based high throughput dose response assay to identify agonists of the vasopressin 1 receptor (V1R). [Related pubchem assays: 2435 (Primary screen (OXTR agonists in singlicate)), 434991 (Counterscreen (V1R agonists in triplicate)), 2482 (Summary (OXTR agonists)) …; format: functional
[38] = target: T3, Neuropeptides B/W receptor type 1 (Homo sapiens, UniProt P48145); experiment: Fluorescence-based dose response cell-based high throughput screening assay to identify antagonists of the G-protein coupled receptor 7 (GPR7). [Related pubchem assays: 1952 (Screening assay (GPR7 antagonists).), 1880 (Summary AID.)]; format: functional
T3 sequence (P48145 whole entry): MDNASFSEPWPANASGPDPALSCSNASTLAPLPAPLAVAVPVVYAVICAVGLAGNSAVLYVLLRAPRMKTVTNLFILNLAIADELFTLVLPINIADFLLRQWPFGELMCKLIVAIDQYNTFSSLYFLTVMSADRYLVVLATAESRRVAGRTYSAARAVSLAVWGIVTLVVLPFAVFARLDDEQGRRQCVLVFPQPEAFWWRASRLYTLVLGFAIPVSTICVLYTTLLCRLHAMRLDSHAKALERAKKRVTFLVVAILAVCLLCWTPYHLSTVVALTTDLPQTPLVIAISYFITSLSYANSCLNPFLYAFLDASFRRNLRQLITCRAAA

[39] = target: T4, Rac GTPase-activating protein 1 (Homo sapiens, UniProt Q9H0H5); experiment: blockers of MgcRacGAP-driven Rac1 GTP hydrolysis – biochemical, ADP Hunter fluorescence, primary and confirmatory, confirmation (AID 624330); format: functional
T4 sequence (Q9H0H5 whole entry): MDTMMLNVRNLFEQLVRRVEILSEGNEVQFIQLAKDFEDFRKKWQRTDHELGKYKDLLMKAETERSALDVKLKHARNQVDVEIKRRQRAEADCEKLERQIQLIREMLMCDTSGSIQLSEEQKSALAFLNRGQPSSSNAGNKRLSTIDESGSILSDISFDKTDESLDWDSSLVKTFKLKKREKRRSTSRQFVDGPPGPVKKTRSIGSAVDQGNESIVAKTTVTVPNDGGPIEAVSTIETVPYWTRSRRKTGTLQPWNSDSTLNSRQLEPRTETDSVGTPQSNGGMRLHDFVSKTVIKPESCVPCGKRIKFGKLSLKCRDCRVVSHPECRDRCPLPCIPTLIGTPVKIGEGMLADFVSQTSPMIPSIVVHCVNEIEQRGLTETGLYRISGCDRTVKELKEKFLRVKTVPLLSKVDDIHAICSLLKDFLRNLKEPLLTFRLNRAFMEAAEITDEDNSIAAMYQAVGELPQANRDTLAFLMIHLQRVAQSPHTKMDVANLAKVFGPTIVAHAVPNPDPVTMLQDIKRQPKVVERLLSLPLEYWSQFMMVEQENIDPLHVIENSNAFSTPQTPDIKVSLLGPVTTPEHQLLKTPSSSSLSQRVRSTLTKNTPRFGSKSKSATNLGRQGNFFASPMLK

[40] = target: Melanin-concentrating hormone receptor 1 (Homo sapiens, UniProt Q99705); experiment: Fluorescence-based counterscreen for antagonists of the G-protein coupled receptor 7 (GPR7): cell-based high throughput dose response assay to identify antagonists of the melanin-concentrating hormone receptor 1 (MCHR1).; format: functional
Sequence of Melanin-concentrating hormone receptor 1 (Q99705 whole entry): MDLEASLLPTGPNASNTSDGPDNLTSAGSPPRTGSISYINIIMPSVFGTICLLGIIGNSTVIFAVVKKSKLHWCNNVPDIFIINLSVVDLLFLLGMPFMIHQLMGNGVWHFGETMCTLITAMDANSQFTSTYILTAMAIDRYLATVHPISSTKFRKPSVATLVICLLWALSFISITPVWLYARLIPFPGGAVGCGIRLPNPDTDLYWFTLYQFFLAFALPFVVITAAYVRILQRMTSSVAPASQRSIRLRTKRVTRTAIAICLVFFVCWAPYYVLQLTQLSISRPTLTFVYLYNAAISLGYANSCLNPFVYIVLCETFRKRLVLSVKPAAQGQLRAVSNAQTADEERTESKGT

[41] = target: T5, Alkaline phosphatase, tissue-nonspecific isozyme (Homo sapiens, UniProt P05186)
T5 sequence (P05186 whole entry): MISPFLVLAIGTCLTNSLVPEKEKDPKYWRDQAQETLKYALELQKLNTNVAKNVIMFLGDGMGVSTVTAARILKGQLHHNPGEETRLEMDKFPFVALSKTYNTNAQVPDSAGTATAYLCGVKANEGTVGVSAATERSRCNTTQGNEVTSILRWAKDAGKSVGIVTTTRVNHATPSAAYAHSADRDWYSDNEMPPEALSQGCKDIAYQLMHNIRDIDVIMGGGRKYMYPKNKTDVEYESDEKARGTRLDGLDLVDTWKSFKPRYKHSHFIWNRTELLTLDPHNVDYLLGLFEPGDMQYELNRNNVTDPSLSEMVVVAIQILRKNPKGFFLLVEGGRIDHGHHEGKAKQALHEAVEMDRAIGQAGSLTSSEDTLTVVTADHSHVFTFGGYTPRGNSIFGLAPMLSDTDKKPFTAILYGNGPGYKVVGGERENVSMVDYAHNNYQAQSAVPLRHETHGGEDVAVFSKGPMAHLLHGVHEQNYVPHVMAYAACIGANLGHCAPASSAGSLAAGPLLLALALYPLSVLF

## CCOc1ccc(NC(=O)c2cc(OC)nc3ccccc23)cc1
[1]
  EC50: 4.73 µM (active)
[2]
  EC50: 894 nM (active)
[3]
  EC50: 1.96 µM (active)
[4]
  EC50: 1.11 µM (active)
[5]
  EC50: 965 nM (active)
[6]
  EC50: 1.38 µM (inconclusive)
[7]
  EC50: 1.16 µM (active)
[8]
  EC50: 0.303 µM (active)
[9]
  AC50: > 30 µM (inactive)
[10]
  EC50: 69.8 µM (inconclusive)
[11]
  EC50: < 0.1 µM (active)

## CC(=O)Nc1ccc2c(c1)C1C=CCC1C(C(=O)O)N2 (centres undefined)
[12]
  IC50: > 100 µM (inactive)
[13]
  IC50: > 100 µM (not active)
[14]
  IC50: > 100 µM (not active)
[15]
  EC50: 4.44 µM (active)
[16]
  IC50: 35.2 µM (active)
[17]
  IC50: 21 µM (active)
[18]
  IC50: > 100 µM (inactive)

## Cc1cccc(Nc2ccccc2C(=O)O)c1C [MEFENAMIC ACID]
[19]
  AC50: inconclusive
[20]
  IC50: 1.34 µM (active)

## C/C=C/OC(=O)NC(c1ccccc1)[C@]1(C(C)=O)CCOC1=O (some centres undefined)
[21]
  AC50: 794 nM (inconclusive)

## Cc1cc(O)nc(-n2nc(C)cc2NC(=O)c2ccc(F)cc2)n1
[22]
  EC50: > 16.6 µM (active)
[23]
  EC50: > 49.7 µM (inactive)

## CC(C)(C)NC(=O)CSc1nncn1NCc1ccccc1
[24]
  EC50: > 50 µM (not active)

## COc1cc(/C=N/N=C(N)N)ccc1OCc1ccccc1Cl
[25]
  EC50: 447 nM (active)
[26]
  CC50: 6.19 µM (active)
[27]
  EC50: > 60 µM (not active)

## COc1ccc2sc(-c3ccc(S(C)(=O)=O)cc3)c(C#CCO)c2c1
[28]
  AC50: 10.6 µM (active)
[29]
  AC50: 25 µM (active)
[30]
  AC50: 24.4 µM (active)
[31]
  AC50: 16.8 µM (active)
[32]
  EC50: 26.6 µM (inactive)
[33]
  AC50: 30.1 µM (active)

## COc1ccc(CCNCC(O)Cn2c3ccccc3c3ccccc32)cc1OC (centres undefined)
[1]
  EC50: 8.76 µM (active)
[34]
  EC50: 12.5 µM (inactive)
[35]
  CC50: 13.7 µM (active)
[8]
  EC50: > 120 µM (not active)
[36]
  EC50: 18.8 µM (not active)
[37]
  EC50: 12.7 µM (not active)
[11]
  EC50: > 120 µM (not active)

## CN(C)c1ccc(Nc2ccc([N+](=O)[O-])cn2)cc1
[38]
  IC50: > 43.8 µM (not active)
[39]
  IC50: 36.4 µM (active)
[40]
  IC50: > 43.8 µM (not active)

## C=CCNC(=S)NNC(=O)C(CCC(C)C)CC(C)O (centres undefined)
[41]
  EC50: 43.5 µM (active)

From ChEMBL document CHEMBL1201862, “PubChem BioAssay data set” (2004)
